Test results taken from patent US9936700B2, “Substituted quinoxaline derivatives as pest control agent” (BAYER CROPSCIENCE AKTIENGESELLSCHAFT, priority 2013, dated 2018).
Read-outs that look alike come from different tables or passages of the source. Blank lines part the entries; values can stand above or below the compound they belong to.

How the values were obtained:
Tetranychus urticae = Tetranychus urticae spray test, OP-resistant (TETRUR); format: in vivo; settings: 500 g/ha, bean leaf discs, after 6 days
Experimental: Tetranychus urticae—spray test, OP-resistant (TETRUR)
• Solvent: 78.0 parts by weight of acetone • 1.5 parts by weight of dimethylformamide • Emulsifier: 0.5 part by weight of alkylaryl polyglycol ether
After 6 days, the efficacy in % is determined. 100% means that all the spider mites have been killed; 0% means that no spider mites have been killed.

[1] = log P by reversed-phase HPLC (EEC Directive 79/831 Annex V.A8); format: physicochemical; settings: for chromatographic logP: reversed-phase C18 HPLC column; for logP [b] = log P (neutral): pH 7.8
Text: NMR data and log P values: log P (HCOOH)=log P[a] log P (neutral)=log P[b]
^[a] […] Called log P (HCOOH) in the table.
^[b] […] Called log P (neutral) in the table.

Aphis gossypii = Aphis gossypii spray test; format: in vivo; settings: cotton plants, after 6 days
Experimental: Aphis gossypii—spray test
• Solvent: 7 parts by weight of dimethylformamide • Emulsifier: alkylaryl polyglycol ether
To produce further test concentrations, the preparation is diluted with emulsifier-containing water. If the addition of ammonium salts or/and penetrants is required, these are each added in a concentration of 1000 ppm to the formulation solution.
After 6 days, the kill in % is determined. 100% means that all the aphids have been killed; 0% means that no aphids have been killed.

Myzus persicae = Myzus persicae spray test (MYZUPE); format: in vivo; settings: Chinese cabbage leaf discs, after 6 days
Experimental: Myzus persicae—spray test (MYZUPE)
• Solvent: 78 parts by weight of acetone • 1.5 parts by weight of dimethylformamide • Emulsifier: 0.5 part by weight of alkylaryl polyglycol ether
After 6 days, the efficacy in % is determined. 100% means that all the aphids have been killed; 0% means that no aphids have been killed.

[2] = acidic range, pH 2.7, 0.1% aqueous formic acid/acetonitrile
[3] = neutral range, pH 7.8, aqueous ammonium hydrogencarbonate/acetonitrile, read-out: logP [b] = log P (neutral)
[4] = acidic range, pH 2.7, 0.1% aqueous formic acid/acetonitrile, read-out: logP [a] = log P (HCOOH)

- chromatographic logP [1, 3]: 1.71
Compound: O=c1cnc2cc(C(F)(F)F)ccc2[nH]1 [VIa-01, 6-(trifluoromethyl)quinoxalin-2(1H)-one]

- logP [a] = log P (HCOOH) ([1]; pH 2.7): 4.67
Compound: Cc1ccsc1-c1cnc2cc(C(F)(F)F)ccc2n1 [Example I-48]
- efficacy (spider mites killed) (Tetranychus urticae): 90%

- logP [a] = log P (HCOOH) ([1]; pH 2.7): 3.60
- logP [b] = log P (neutral) [1]: 3.55
Compound: CCSc1ccccc1-c1cnc2cc(C#N)ccc2n1 [Example I-57]

- logP [a] = log P (HCOOH) ([1]; pH 2.7): 2.66
- logP [b] = log P (neutral) [1]: 2.65
Compound: CC[S+]([O-])c1ccccc1-c1cnc2cc(Cl)ccc2n1 (stereo not shown) [Example I-31]
- efficacy (aphids killed) (Myzus persicae; 500 g/ha): 90%

- logP [a] = log P (HCOOH) ([1]; pH 2.7): 4.97
Compound: Cc1ccc(-c2cnc3ccc(C(F)(F)F)cc3n2)c(F)c1 [Example I-51]
- efficacy (spider mites killed) (Tetranychus urticae): 100%

- logP [a] = log P (HCOOH) ([1]; pH 2.7): 5.38
- logP [b] = log P (neutral) [1]: 5.48
Compound: CCSc1ccccc1-c1cnc2cc(Cl)c(Cl)cc2n1 [Example I-42]

- logP [a] = log P (HCOOH) ([1]; pH 2.7): 4.04
- logP [b] = log P (neutral) [1]: 4.00
Compound: Cc1ccc(-c2c[n+]([O-])c3ccc(C(F)(F)F)cc3n2)c(F)c1 [Example I-54]

- logP [a] = log P (HCOOH) ([1]; pH 2.7): 4.57
Compound: Cc1cscc1-c1cnc2ccc(C(F)(F)F)cc2n1 [Example I-44]

- logP [a] = log P (HCOOH) ([1]; pH 2.7): 2.99
Compound: Clc1ccc2nc(-c3ccncc3Cl)cnc2c1 [Example I-39]

- logP [a] = log P (HCOOH) ([1]; pH 2.7): 2.85
- logP [b] = log P (neutral) [1]: 2.78
Compound: CCSc1ccccc1-c1cnc2ccc(S(C)(=O)=O)cc2n1 [Example I-35]

- logP [a] = log P (HCOOH) ([1]; pH 2.7): 4.65
- logP [b] = log P (neutral) [1]: 4.66
Compound: Cc1ccsc1-c1cnc2ccc(C(F)(F)F)cc2n1 [Example I-43]
- efficacy (spider mites killed) (Tetranychus urticae): 90%

- chromatographic logP [1, 4]: 2.96
Compound: O=c1[nH]c2cc3c(cc2nc1-c1ccc(Cl)cc1)OC(F)(F)O3 [VIb-01, 7-(4-chlorophenyl)-2,2-difluoro [1,3]dioxolo [4,5-g]quinoxalin-6(5H)-one]

- logP [a] = log P (HCOOH) ([1]; pH 2.7): 4.59
Compound: CCOc1ncccc1-c1cnc2cc(C(F)(F)F)ccc2n1 [Example I-24]
- efficacy (spider mites killed) (Tetranychus urticae): 100%

- chromatographic logP [1, 4]: 1.49
- chromatographic logP [1, 3]: 1.33
Compound: O=c1cnc2cc3c(cc2[nH]1)OC(F)(F)O3 [VIa-03, 2,2-difluoro[1,3]dioxolo[4,5-g]quinoxalin-6(5H)-one]

Continued, compound first:

Compound: Cc1ccccc1-c1cnc2cc(C(F)(F)F)ccc2n1 [Example I-46]
- efficacy (spider mites killed) (Tetranychus urticae): 90%
- logP [a] = log P (HCOOH) [1, 2]: 4.48

Compound: Cc1cnccc1-c1nc2cc(C(F)(F)F)ccc2nc1-c1ccc(Cl)cc1 [Example I-68]
- logP [a] = log P (HCOOH) [1, 2]: 3.94

Compound: CSc1ccccc1-c1cnc2cc(C(F)(F)F)ccc2n1 [Example I-16]
- logP [a] = log P (HCOOH) ([1]; pH 2.7): 4.45
- logP [b] = log P (neutral) [1]: 4.31

Compound: FC(F)(F)c1ccc2nc(-c3ccncc3)c(-c3ccncc3)nc2c1 [Example I-58]
- logP [a] = log P (HCOOH) [1, 2]: 2.06

Compound: FC(F)(F)c1ccc2nc(-c3ccncc3Cl)cnc2c1 [Example I-10]
- efficacy (kill of aphids) (Aphis gossypii; 20 ppm): 85%
- efficacy (aphids killed) (Myzus persicae; 100 g/ha): 100%
- logP [a] = log P (HCOOH) ([1]; pH 2.7): 3.27

Compound: Cc1cnccc1-c1nc2cc(C(F)(F)F)ccc2nc1Cl [Example I-38]
- logP [a] = log P (HCOOH) ([1]; pH 2.7): 2.88

Compound: Cc1cnccc1-c1nc2ccc(C(F)(F)F)cc2nc1C [Example I-66]
- efficacy (kill of aphids) (Aphis gossypii; 100 ppm): 95%
- efficacy (spider mites killed) (Tetranychus urticae): 90%
- efficacy (aphids killed) (Myzus persicae; 500 g/ha): 90%
- logP [a] = log P (HCOOH) [1, 2]: 2.15

Compound: Cc1cnccc1-c1nc2ccc(C(F)(F)F)cc2nc1-c1ccc(Cl)cc1 [Example I-64]
- logP [a] = log P (HCOOH) [1, 2]: 4.03

Compound: Cc1cnccc1-c1cnc2ccc(S(C)(=O)=O)cc2n1 [Example I-13]
- logP [a] = log P (HCOOH) ([1]; pH 2.7): 0.72
- logP [b] = log P (neutral) [1]: 1.34

Compound: Cc1c[n+]([O-])ccc1-c1c[n+]([O-])c2cc(C(F)(F)F)ccc2n1 [Example I-55]
- logP [a] = log P (HCOOH) [1, 2]: 1.59

Compound: FC(F)(F)c1ccc2nc(-c3ccc(Cl)cc3)cnc2c1 [Example I-25]
- efficacy (spider mites killed) (Tetranychus urticae): 90%
- logP [a] = log P (HCOOH) [1, 2]: 4.99

Compound: Cc1cnccc1-c1cnc2cc(F)c(F)cc2n1 [Example I-63]
- efficacy (aphids killed) (Myzus persicae; 500 g/ha): 90%
- logP [a] = log P (HCOOH) ([1]; pH 2.7): 1.55

Compound: FC(F)(F)c1ccccc1-c1cnc2cc(Cl)ccc2n1 [Example I-21]
- efficacy (spider mites killed) (Tetranychus urticae): 100%
- logP [a] = log P (HCOOH) ([1]; pH 2.7): 4.17

Compound: Clc1ccc2nc(-c3cncnc3)cnc2c1 [Example I-19]
- logP [a] = log P (HCOOH) ([1]; pH 2.7): 2.01

Compound: [O-][n+]1cc(-c2ccc(C(F)(F)F)cc2)nc2cc3c(cc21)OC(F)(F)O3 [Example I-6, 2,2-Difluoro-7-[4-(trifluoromethyl)phenyl][1,3]dioxolo [4,5-g]quinoxaline 5-oxide]
- chromatographic logP [1, 4]: 4.12
